Data published in PubChem BioAssay AID1918945 (Molecular Pharmacology Branch, DTP, NCI, 2023).

System: 883617-216-R-J1-PDC complex spheroid viability
Experiment: Anticancer human tumor 883617-216-R-J1-PDC patient-derived bladder carcinoma cell line growth inhibition
Settings: for IC50: curve of first compound; for viability, T/C: stronger effect = lower value
Method in brief: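 Drug combinations with the LSD1 inhibitor iadademstat tested on tumor cells co-cultured as spheroids with endothelial cells and mesenchymal stem cells. Concentrations descended in half-log increments from clinical Cmax or 10 microM.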

[1] = second compound 0.1 µM, first compound 0.0316 µM
[2] = second compound 0.1 µM, first compound 0.1 µM
[3] = second compound 0.1 µM, first compound 0.316 µM
[4] = second compound 0.1 µM, first compound 1 µM
[5] = second compound 0.316 µM, first compound 0.0316 µM
[6] = second compound 0.316 µM, first compound 0.1 µM
[7] = second compound 0.316 µM, first compound 0.316 µM
[8] = second compound 0.316 µM, first compound 1 µM
[9] = second compound 1 µM, first compound 0.0316 µM
[10] = second compound 1 µM, first compound 0.1 µM
[11] = second compound 1 µM, first compound 0.316 µM
[12] = second compound 1 µM, first compound 1 µM
[13] = second compound 3.16 µM, first compound 0.0316 µM
[14] = second compound 3.16 µM, first compound 0.1 µM
[15] = second compound 3.16 µM, first compound 0.316 µM
[16] = second compound 3.16 µM, first compound 1 µM
[17] = second compound 10 µM, first compound 0.0316 µM
[18] = second compound 10 µM, first compound 0.1 µM
[19] = second compound 10 µM, first compound 0.316 µM
[20] = second compound 10 µM, first compound 1 µM
[21] = second compound 0.1 µM, first compound 0.00949 µM
[22] = second compound 0.1 µM, first compound 0.03 µM
[23] = second compound 0.1 µM, first compound 0.0949 µM
[24] = second compound 0.1 µM, first compound 0.3 µM
[25] = second compound 0.1 µM, first compound 0.949 µM
[26] = second compound 0.1 µM, first compound 3 µM
[27] = second compound 0.316 µM, first compound 0.00949 µM
[28] = second compound 0.316 µM, first compound 0.03 µM
[29] = second compound 0.316 µM, first compound 0.0949 µM
[30] = second compound 0.316 µM, first compound 0.3 µM
[31] = second compound 0.316 µM, first compound 0.949 µM
[32] = second compound 0.316 µM, first compound 3 µM
[33] = second compound 1 µM, first compound 0.00949 µM
[34] = second compound 1 µM, first compound 0.03 µM
[35] = second compound 1 µM, first compound 0.0949 µM
[36] = second compound 1 µM, first compound 0.3 µM
[37] = second compound 1 µM, first compound 0.949 µM
[38] = second compound 1 µM, first compound 3 µM
[39] = second compound 3.16 µM, first compound 0.00949 µM
[40] = second compound 3.16 µM, first compound 0.03 µM
[41] = second compound 3.16 µM, first compound 0.0949 µM
[42] = second compound 3.16 µM, first compound 0.3 µM
[43] = second compound 3.16 µM, first compound 0.949 µM
[44] = second compound 3.16 µM, first compound 3 µM
[45] = second compound 10 µM, first compound 0.00949 µM
[46] = second compound 10 µM, first compound 0.03 µM
[47] = second compound 10 µM, first compound 0.0949 µM
[48] = second compound 10 µM, first compound 0.3 µM
[49] = second compound 10 µM, first compound 0.949 µM
[50] = second compound 10 µM, first compound 3 µM
[51] = second compound 0.1 µM, first compound 0.00316 µM
[52] = second compound 0.1 µM, first compound 0.01 µM
[53] = second compound 0.316 µM, first compound 0.00316 µM
[54] = second compound 0.316 µM, first compound 0.01 µM
[55] = second compound 1 µM, first compound 0.00316 µM
[56] = second compound 1 µM, first compound 0.01 µM
[57] = second compound 3.16 µM, first compound 0.00316 µM
[58] = second compound 3.16 µM, first compound 0.01 µM
[59] = second compound 10 µM, first compound 0.00316 µM
[60] = second compound 10 µM, first compound 0.01 µM
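Further: exposure lasted seven days after three days of spheroid growth.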
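Wherever viability, T/C is given: 100% = DMSO vehicle control luminescence.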

SMILES: CC1(C)CCC(CN2CCN(c3ccc(C(=O)NS(=O)(=O)c4ccc(NCC5CCOCC5)c([N+](=O)[O-])c4)c(Oc4cnc5[nH]ccc5c4)c3)CC2)=C(c2ccc(Cl)cc2)C1 + NC1CC1c1ccc(-c2cccc(O)c2)cc1
- IC50 (second compound 0.1 µM): 7410 nM
- IC50 (second compound 0.316 µM): 7200 nM
- IC50 (second compound 1 µM): 6430 nM
- IC50 (second compound 3.16 µM): 6410 nM
- IC50 (second compound 10 µM): 4920 nM
- viability, T/C [1]: 115%
- viability, T/C [2]: 116%
- viability, T/C [3]: 125%
- viability, T/C [4]: 129%
- viability, T/C (second compound 0.1 µM, first compound 3.16 µM): 117%
- viability, T/C (second compound 0.1 µM, first compound 10 µM): 26.2%
- viability, T/C [5]: 128%
- viability, T/C [6]: 130%
- viability, T/C [7]: 131%
- viability, T/C [8]: 129%
- viability, T/C (second compound 0.316 µM, first compound 3.16 µM): 118%
- viability, T/C (second compound 0.316 µM, first compound 10 µM): 23%
- viability, T/C [9]: 115%
- viability, T/C [10]: 121%
- viability, T/C [11]: 111%
- viability, T/C [12]: 121%
- viability, T/C (second compound 1 µM, first compound 3.16 µM): 102%
- viability, T/C (second compound 1 µM, first compound 10 µM): 17.4%
- viability, T/C [13]: 124%
- viability, T/C [14]: 109%
- viability, T/C [15]: 106%
- viability, T/C [16]: 115%
- viability, T/C (second compound 3.16 µM, first compound 3.16 µM): 107%
- viability, T/C (second compound 3.16 µM, first compound 10 µM): 14%
- viability, T/C [17]: 90.9%
- viability, T/C [18]: 96.8%
- viability, T/C [19]: 79.6%
- viability, T/C [20]: 83.1%
- viability, T/C (second compound 10 µM, first compound 3.16 µM): 75.5%
- viability, T/C (second compound 10 µM, first compound 10 µM): 11.2%

SMILES: CCN(c1cc(-c2ccc(CN3CCOCC3)cc2)cc(C(=O)NCc2c(C)cc(C)[nH]c2=O)c1C)C1CCOCC1 + NC1CC1c1ccc(-c2cccc(O)c2)cc1
- IC50 (second compound 0.1 µM): > 3000 nM
- IC50 (second compound 0.316 µM): > 3000 nM
- IC50 (second compound 1 µM): > 3000 nM
- IC50 (second compound 3.16 µM): > 3000 nM
- IC50 (second compound 10 µM): > 3000 nM
- viability, T/C [21]: 86.5%
- viability, T/C [22]: 84.8%
- viability, T/C [23]: 81.9%
- viability, T/C [24]: 73.5%
- viability, T/C [25]: 79.4%
- viability, T/C [26]: 66.9%
- viability, T/C [27]: 96.8%
- viability, T/C [28]: 92.2%
- viability, T/C [29]: 83.4%
- viability, T/C [30]: 89.9%
- viability, T/C [31]: 86%
- viability, T/C [32]: 70%
- viability, T/C [33]: 105%
- viability, T/C [34]: 93%
- viability, T/C [35]: 88.2%
- viability, T/C [36]: 91.5%
- viability, T/C [37]: 88.6%
- viability, T/C [38]: 79.2%
- viability, T/C [39]: 99.7%
- viability, T/C [40]: 83.3%
- viability, T/C [41]: 73.8%
- viability, T/C [42]: 83.2%
- viability, T/C [43]: 88.6%
- viability, T/C [44]: 78.5%
- viability, T/C [45]: 78.4%
- viability, T/C [46]: 72.9%
- viability, T/C [47]: 69.2%
- viability, T/C [48]: 63%
- viability, T/C [49]: 71.1%
- viability, T/C [50]: 61.1%

SMILES: COc1cc(Nc2ncc3c(n2)-c2ccc(Cl)cc2C(c2c(F)cccc2OC)=NC3)ccc1C(=O)O + NC1CC1c1ccc(-c2cccc(O)c2)cc1
- IC50 (second compound 0.1 µM): 30.4 nM
- IC50 (second compound 0.316 µM): 30.5 nM
- IC50 (second compound 1 µM): 20.6 nM
- IC50 (second compound 3.16 µM): 18.8 nM
- IC50 (second compound 10 µM): 16.9 nM
- viability, T/C [51]: 92.4%
- viability, T/C [52]: 76.6%
- viability, T/C [1]: 48.8%
- viability, T/C [2]: 37.8%
- viability, T/C [3]: 37.3%
- viability, T/C [4]: 33.4%
- viability, T/C [53]: 109%
- viability, T/C [54]: 67.8%
- viability, T/C [5]: 52.6%
- viability, T/C [6]: 37.6%
- viability, T/C [7]: 36.7%
- viability, T/C [8]: 36%
- viability, T/C [55]: 106%
- viability, T/C [56]: 60.9%
- viability, T/C [9]: 43.2%
- viability, T/C [10]: 39.7%
- viability, T/C [11]: 34.5%
- viability, T/C [12]: 36.5%
- viability, T/C [57]: 81.8%
- viability, T/C [58]: 63.1%
- viability, T/C [13]: 38.8%
- viability, T/C [14]: 37.2%
- viability, T/C [15]: 36.6%
- viability, T/C [16]: 31.5%
- viability, T/C [59]: 72.7%
- viability, T/C [60]: 54.7%
- viability, T/C [17]: 46.3%
- viability, T/C [18]: 31.6%
- viability, T/C [19]: 35.1%
- viability, T/C [20]: 32.6%

SMILES: Cn1ncnc1C1c2n[nH]c(=O)c3cc(F)cc(c23)NC1c1ccc(F)cc1 (stereo not given) + NC1CC1c1ccc(-c2cccc(O)c2)cc1
- IC50 (second compound 0.1 µM): 15.1 nM
- IC50 (second compound 0.316 µM): 16.2 nM
- IC50 (second compound 1 µM): 12.4 nM
- IC50 (second compound 3.16 µM): 8.5 nM
- IC50 (second compound 10 µM): 6.41 nM
- viability, T/C (second compound 0.1 µM, first compound 0.000316 µM): 105%
- viability, T/C (second compound 0.1 µM, first compound 0.001 µM): 95.4%
- viability, T/C [51]: 76.4%
- viability, T/C [52]: 53%
- viability, T/C [1]: 44.1%
- viability, T/C [2]: 37.8%
- viability, T/C (second compound 0.316 µM, first compound 0.000316 µM): 116%
- viability, T/C (second compound 0.316 µM, first compound 0.001 µM): 103%
- viability, T/C [53]: 73%
- viability, T/C [54]: 54.3%
- viability, T/C [5]: 47.1%
- viability, T/C [6]: 40.8%
- viability, T/C (second compound 1 µM, first compound 0.000316 µM): 118%
- viability, T/C (second compound 1 µM, first compound 0.001 µM): 88.9%
- viability, T/C [55]: 68.6%
- viability, T/C [56]: 50.2%
- viability, T/C [9]: 43%
- viability, T/C [10]: 37.8%
- viability, T/C (second compound 3.16 µM, first compound 0.000316 µM): 92.4%
- viability, T/C (second compound 3.16 µM, first compound 0.001 µM): 93%
- viability, T/C [57]: 62.6%
- viability, T/C [58]: 50.4%
- viability, T/C [13]: 42.2%
- viability, T/C [14]: 33.9%
- viability, T/C (second compound 10 µM, first compound 0.000316 µM): 83.5%
- viability, T/C (second compound 10 µM, first compound 0.001 µM): 64.2%
- viability, T/C [59]: 58.1%
- viability, T/C [60]: 44.9%
- viability, T/C [17]: 40.9%
- viability, T/C [18]: 32.3%

SMILES: NS(=O)(=O)OCC1CC(n2ccc3c(NC4CCc5ccccc54)ncnc32)CC1O (stereo not given) + NC1CC1c1ccc(-c2cccc(O)c2)cc1
- IC50 (second compound 0.1 µM): 221 nM
- IC50 (second compound 0.316 µM): 230 nM
- IC50 (second compound 1 µM): 219 nM
- IC50 (second compound 3.16 µM): 202 nM
- IC50 (second compound 10 µM): 155 nM
- viability, T/C [21]: 123%
- viability, T/C [22]: 144%
- viability, T/C [23]: 112%
- viability, T/C [24]: 27.5%
- viability, T/C [25]: 10.8%
- viability, T/C [26]: 8.35%
- viability, T/C [27]: 124%
- viability, T/C [28]: 150%
- viability, T/C [29]: 127%
- viability, T/C [30]: 26.7%
- viability, T/C [31]: 12.9%
- viability, T/C [32]: 8.2%
- viability, T/C [33]: 135%
- viability, T/C [34]: 159%
- viability, T/C [35]: 111%
- viability, T/C [36]: 28.3%
- viability, T/C [37]: 13%
- viability, T/C [38]: 10.2%
- viability, T/C [39]: 122%
- viability, T/C [40]: 157%
- viability, T/C [41]: 94.5%
- viability, T/C [42]: 29.7%
- viability, T/C [43]: 10.5%
- viability, T/C [44]: 9.87%
- viability, T/C [45]: 126%
- viability, T/C [46]: 139%
- viability, T/C [47]: 71.8%
- viability, T/C [48]: 27%
- viability, T/C [49]: 12.9%
- viability, T/C [50]: 9.23%
